According to ChEMBL document CHEMBL3885881, “DrugMatrix”:

Organism: Rattus norvegicus
Test: DrugMatrix - Regimen: Daily Repeat
Assay type: toxicity, organism-based, Sprague-Dawley
Parameters: regimen Daily Repeat, gender Male, age 6-8 weeks
Details: in vivo, po, route oral GAVAGE, vehicle 100 % WATER; for ABSOLUTE BASOPHIL / ABSOLUTE EOSINOPHIL / ABSOLUTE LYMPHOCYTE / ABSOLUTE MONOCYTE / ABSOLUTE SEGMENTED NEUTROPHIL / BASOPHIL / EOSINOPHIL / ERYTHROCYTE COUNT / HEMATOCRIT / HEMOGLOBIN / LEUKOCYTE COUNT / LYMPHOCYTE / MEAN CORPUSCULAR HEMOGLOBIN / MEAN CORPUSCULAR HEMOGLOBIN CONCENTRATION / MONOCYTE / NEUTROPHIL / NUCLEATED RED BLOOD CELLS / PLATELET COUNT: tissue Blood; for ALANINE AMINOTRANSFERASE / ALBUMIN / ALKALINE PHOSPHATASE / BLOOD UREA NITROGEN / CARBON DIOXIDE / CHLORIDE / CHOLESTEROL / CREATINE PHOSPHOKINASE / CREATININE / GLUCOSE / LACTATE DEHYDROGENASE / LIPASE / PHOSPHORUS / POTASSIUM / SODIUM / TOTAL BILIRUBIN / TOTAL PROTEIN / URIC ACID: tissue Plasma
[1] = 15 mg/kg, 120 h, dose level Low, time 5 day
[2] = 150 mg/kg, 72 h, dose level High, time 3 day
[3] = 150 mg/kg, 120 h, dose level High, time 5 day

For `Cc1ccc(NC(=O)c2ccc(CN3CCN(C)CC3)cc2)cc1Nc1nccc(-c2cccnc2)n1` [IMATINIB], the “ABSOLUTE BASOPHIL” value [1] was 0 CELLS/uL, the “ABSOLUTE EOSINOPHIL” value [1] was 72.33 CELLS/uL and the “ABSOLUTE LYMPHOCYTE” value [1] was 6282 CELLS/uL. The “ABSOLUTE MONOCYTE” value [1] was 25.33 CELLS/uL, the “ABSOLUTE SEGMENTED NEUTROPHIL” value [1] was 653.67 CELLS/uL and the BASOPHIL [1] was 0%. The EOSINOPHIL [1] was 1%, the “ERYTHROCYTE COUNT” value [1] was 5.21 x10E6/uL and the HEMATOCRIT [1] was 33.07%. The HEMOGLOBIN [1] was 12.73 G/DL, the “LEUKOCYTE COUNT” value [1] was 7.03 x10E3/uL and the LYMPHOCYTE [1] was 89.67%. The “MEAN CORPUSCULAR HEMOGLOBIN” value [1] was 24.43 pg, the “MEAN CORPUSCULAR HEMOGLOBIN CONCENTRATION” value [1] was 38.53 G/DL and the MONOCYTE [1] was 0.33%. For the same compound, the NEUTROPHIL [1] was 9%, the “NUCLEATED RED BLOOD CELLS” value [1] was 0 /100WBC and the “PLATELET COUNT” value [1] was 1004.67 x10E3/uL. The “ALANINE AMINOTRANSFERASE” value [1] was 55.67 u/L, the ALBUMIN [1] was 4.2 G/DL and the “ALKALINE PHOSPHATASE” value [1] was 357.67 u/L. The “BLOOD UREA NITROGEN” value [1] was 14.67 mg/dL, the “CARBON DIOXIDE” value [1] was 28 mmol/L and the CHLORIDE [1] was 100.33 MEQ/L. For the same compound, the CHOLESTEROL [1] was 60 mg/dL, the “CREATINE PHOSPHOKINASE” value [1] was 404.33 u/L and the CREATININE [1] was 0.17 mg/dL. For the same compound, the GLUCOSE [1] was 140.33 mg/dL, the “LACTATE DEHYDROGENASE” value [1] was 183.67 u/L and the LIPASE [1] was 8 u/L. For the same compound, the PHOSPHORUS [1] was 11.1 mg/dL, the POTASSIUM [1] was 5.69 MEQ/L and the SODIUM [1] was 145.7 MEQ/L. The “TOTAL BILIRUBIN” value [1] was 0.3 mg/dL, the “TOTAL PROTEIN” value [1] was 6 G/DL and the “URIC ACID” value [1] was 0.73 mg/dL. The “ABSOLUTE BASOPHIL” value [2] was 0 CELLS/uL, the “ABSOLUTE EOSINOPHIL” value [2] was 64 CELLS/uL and the “ABSOLUTE LYMPHOCYTE” value [2] was 9025.33 CELLS/uL. For the same compound, the “ABSOLUTE MONOCYTE” value [2] was 0 CELLS/uL, the “ABSOLUTE SEGMENTED NEUTROPHIL” value [2] was 844 CELLS/uL and the BASOPHIL [2] was 0%. The EOSINOPHIL [2] was 0.67%, the “ERYTHROCYTE COUNT” value [2] was 5.45 x10E6/uL and the HEMATOCRIT [2] was 34.93%. The HEMOGLOBIN [2] was 13 G/DL, the “LEUKOCYTE COUNT” value [2] was 9.93 x10E3/uL and the LYMPHOCYTE [2] was 90.33%. For the same compound, the “MEAN CORPUSCULAR HEMOGLOBIN” value [2] was 23.83 pg, the “MEAN CORPUSCULAR HEMOGLOBIN CONCENTRATION” value [2] was 37.2 G/DL and the MONOCYTE [2] was 0%. The NEUTROPHIL [2] was 9%, the “NUCLEATED RED BLOOD CELLS” value [2] was 0 /100WBC and the “PLATELET COUNT” value [2] was 1243.33 x10E3/uL. For the same compound, the “ALANINE AMINOTRANSFERASE” value [2] was 86 u/L, the ALBUMIN [2] was 4.3 G/DL and the “ALKALINE PHOSPHATASE” value [2] was 449.67 u/L. The “BLOOD UREA NITROGEN” value [2] was 14.67 mg/dL, the “CARBON DIOXIDE” value [2] was 26.33 mmol/L and the CHLORIDE [2] was 105.33 MEQ/L. For the same compound, the CHOLESTEROL [2] was 61.33 mg/dL, the “CREATINE PHOSPHOKINASE” value [2] was 205.67 u/L and the CREATININE [2] was 0.17 mg/dL. For the same compound, the GLUCOSE [2] was 154 mg/dL, the “LACTATE DEHYDROGENASE” value [2] was 135.33 u/L and the LIPASE [2] was 9 u/L. It also gave a PHOSPHORUS [2] of 11 mg/dL, a POTASSIUM [2] of 5.83 MEQ/L and an SODIUM [2] of 145.03 MEQ/L. The “TOTAL BILIRUBIN” value [2] was 0.23 mg/dL, the “TOTAL PROTEIN” value [2] was 5.97 G/DL and the “URIC ACID” value [2] was 1.3 mg/dL. The “ABSOLUTE BASOPHIL” value [3] was 0 CELLS/uL, the “ABSOLUTE EOSINOPHIL” value [3] was 37 CELLS/uL and the “ABSOLUTE LYMPHOCYTE” value [3] was 11284 CELLS/uL. The “ABSOLUTE MONOCYTE” value [3] was 0 CELLS/uL, the “ABSOLUTE SEGMENTED NEUTROPHIL” value [3] was 1012.33 CELLS/uL and the BASOPHIL [3] was 0%. For the same compound, the EOSINOPHIL [3] was 0.33%, the “ERYTHROCYTE COUNT” value [3] was 5.01 x10E6/uL and the HEMATOCRIT [3] was 32.5%. For the same compound, the HEMOGLOBIN [3] was 12.27 G/DL, the “LEUKOCYTE COUNT” value [3] was 12.33 x10E3/uL and the LYMPHOCYTE [3] was 91.33%. The “MEAN CORPUSCULAR HEMOGLOBIN” value [3] was 24.53 pg, the “MEAN CORPUSCULAR HEMOGLOBIN CONCENTRATION” value [3] was 37.73 G/DL and the MONOCYTE [3] was 0%. The NEUTROPHIL [3] was 8.33%, the “NUCLEATED RED BLOOD CELLS” value [3] was 0 /100WBC and the “PLATELET COUNT” value [3] was 1206.67 x10E3/uL. For the same compound, the “ALANINE AMINOTRANSFERASE” value [3] was 77.33 u/L, the ALBUMIN [3] was 4.37 G/DL and the “ALKALINE PHOSPHATASE” value [3] was 359.33 u/L. For the same compound, the “BLOOD UREA NITROGEN” value [3] was 17.33 mg/dL, the “CARBON DIOXIDE” value [3] was 27.33 mmol/L and the CHLORIDE [3] was 100 MEQ/L. The CHOLESTEROL [3] was 49.67 mg/dL, the “CREATINE PHOSPHOKINASE” value [3] was 251 u/L and the CREATININE [3] was 0.21 mg/dL. For the same compound, the GLUCOSE [3] was 162 mg/dL, the “LACTATE DEHYDROGENASE” value [3] was 163.67 u/L and the LIPASE [3] was 9 u/L. The PHOSPHORUS [3] was 10.77 mg/dL, the POTASSIUM [3] was 5.96 MEQ/L and the SODIUM [3] was 141.83 MEQ/L. The “TOTAL BILIRUBIN” value [3] was 0.2 mg/dL, the “TOTAL PROTEIN” value [3] was 5.9 G/DL and the “URIC ACID” value [3] was 1.47 mg/dL.
